Measured values as given in patent US20100286024A1, “Insulinotropic compounds and uses thereof” (priority 2005, published 2010).
No end group written: not given here.

Experiments:
[1] = biological target: GLP-1 receptor (mouse) (UniProt O35659)
[2] = tested on: dipeptidyl peptidase IV; assay: DPP-IV assay (Example 5), HPLC/ES-MS; type: in vitro ADME; conditions: 11 milliunits DPP-IV, 50 mM triethanolamine buffer pH 7.8, 37° C., HPLC and ES-MS
Description: J. Bailey, F. P. M. O'Harte, and P. R. Flatt. […] Biological Chemistry. 385, pp 169-177.
Briefly, 100-200 microgams of each peptide was dissolved in 0.5 ml of 50 mM triethanolamine buffer, pH 7.8. To this was added a 10 microlitre solution of 11 milliunits DPP-IV (Sigma) and the solutions incubated at 37° C. for up to 42 hours. […] The incubations were terminated by addition of 5 microlitres TFA to each tube and 50 microlitre of each were injected onto a reversed phase 4.6×250 mm C18 HPLC column, eluting a gradient of 20%-45% acetonitrile in 0.1% TFA/water over 25 minutes. […] After 42 hours, the 2 analogues slowly degraded to a product that gave a mass spectrum consistent with the mass of the 9-37 sequence, indicating longer term instability of the urea bond. This represented as much as 15% of the product by HPLC. This degradation appeared to be non-DPP-IV related, since samples without enzyme gave the same profile.

[3] = tested on: beta TC-6 cell line; assay: Insulin release assay (insulin ELISA); type: cell-based, mouse; conditions: for Insulin release: 5 mM glucose, 30 minutes, Beta-TC-6 cells, cells only 1.37-3.67; for Activity of 15 μM of each peptide as percentage of insulin release by cells only / Activity of 3 μM of each peptide as percentage of insulin release by cells only: cells alone=100%
Description: This was derived from a pancreatic tumor (insulinoma) arising in a transgenic mouse.
Beta-TC-6 cells were purchased from A.T.C.C. (A.T.C.C. number CCL-11506; Manassas, Va., U.S.A.). Beta-TC-6 cells were cultured in Dulbecco's Modified Eagle's medium supplemented with 15% (v/v) heat-inactivated foetal bovine serum, 1% (v/v) glutamine, 0.45% (w/v) glucose and 0.15% (w/v) sodium bicarbonate at 37° C. in a humidified 5% CO2 atmosphere. Beta-TC-6 cells form islands and the monolayer never becomes confluent; cells were passaged at 70% confluence (7 days from seeding) at a subcultivation ratio of 1:4. The monolayer was disrupted from the surface of the culture flask with 0.25% (w/v) Trypsin-0.53 mM EDTA.
Beta-TC-6 cells were cultured in 12 well plates for between 4-8 days prior to use. Cells were cultured in Krebs-Ringer (10 mM Hepes, pH 7.4, 136 mM NaCl, 4.7 mM KCl and 1.25 mM MgSO4) supplemented with 5 mM glucose for 1 hr at 37° C. in a humidified 5% CO2 atmosphere. This medium was removed, cells washed with Krebs-Ringer. Beta-TC-6 cells were then cultured in 1 ml per well of Krebs-Ringer supplemented with 5 mM glucose and 0, 0.12, 0.6, 3 and 15 μM of peptide in duplicate for 30 minutes at 37° C. in a humidified 5% CO2 atmosphere. Medium was removed, diluted 1:5, and insulin concentration determined using an insulin ELISA kit (Mercodia, Uppsala, Sweden) according to the manufacturer's protocol. Beta-TC-6 cells were washed three times with ice-cold PBS and extracted into 0.5 ml lysis buffer (62.5 mM Tris, pH 7.5, and 1%, v/v, SDS) per well. Protein concentration was determined by Lowry assay. […] Only single-sided p values are shown.

[4] = biological target: DPP-IV (Homo sapiens, UniProt P27487); assay: Dipeptidyl Peptidase IV (DPP-IV) digestion, stability by RP-HPLC (Example 10); type: in vitro ADME; conditions: DPP-IV (isolated peptidase), PBS/TEthA, pH 7.5, 37°, DPP-IV, read-out: percentage of analogue remaining
Description: Their stabilities were monitored by RP-HPLC, noting the disappearance of the intact sequence and appearance of a species missing the N terminal dipeptide or similar fragment.

[5] = Control study: chemical stability in PBS/triethanolamine without DPP-IV; type: physicochemical; conditions: PBS/TEthA, pH 7.5, 37°, no DPP-IV; for remaining at 22 h / remaining at 47 h: PBS/triethanolamine solution without DPP-IV, read-out: percentage of peptide remaining
Description: In the control study, peptides were incubated with PBS/triethanolamine solution in the absence of DPP-IV to measure their chemical stability.

[6] = biological target: L-His-L-Ala-NH-NH-CH2-C(O)-Glu9-37 (SP007) (Homo sapiens)
[7] = biological target: L-His-NH-NH-CH2-C(O)-Glu9-37 (SP006) (Homo sapiens)
[8] = biological target: L-His-L-NH-CH(CH3)-CH2-NH-O-CH2-C(O)-Glu9-37 (SP005) (Homo sapiens)
[9] = biological target: Native GLP-1 7-37 (Homo sapiens)
[10] = biological target: L-His-NH-NH-CH(CH3)-C(O)-Glu9-37 (SP008) (Homo sapiens)

Chain of DPP-IV (P27487 whole entry, species assumed): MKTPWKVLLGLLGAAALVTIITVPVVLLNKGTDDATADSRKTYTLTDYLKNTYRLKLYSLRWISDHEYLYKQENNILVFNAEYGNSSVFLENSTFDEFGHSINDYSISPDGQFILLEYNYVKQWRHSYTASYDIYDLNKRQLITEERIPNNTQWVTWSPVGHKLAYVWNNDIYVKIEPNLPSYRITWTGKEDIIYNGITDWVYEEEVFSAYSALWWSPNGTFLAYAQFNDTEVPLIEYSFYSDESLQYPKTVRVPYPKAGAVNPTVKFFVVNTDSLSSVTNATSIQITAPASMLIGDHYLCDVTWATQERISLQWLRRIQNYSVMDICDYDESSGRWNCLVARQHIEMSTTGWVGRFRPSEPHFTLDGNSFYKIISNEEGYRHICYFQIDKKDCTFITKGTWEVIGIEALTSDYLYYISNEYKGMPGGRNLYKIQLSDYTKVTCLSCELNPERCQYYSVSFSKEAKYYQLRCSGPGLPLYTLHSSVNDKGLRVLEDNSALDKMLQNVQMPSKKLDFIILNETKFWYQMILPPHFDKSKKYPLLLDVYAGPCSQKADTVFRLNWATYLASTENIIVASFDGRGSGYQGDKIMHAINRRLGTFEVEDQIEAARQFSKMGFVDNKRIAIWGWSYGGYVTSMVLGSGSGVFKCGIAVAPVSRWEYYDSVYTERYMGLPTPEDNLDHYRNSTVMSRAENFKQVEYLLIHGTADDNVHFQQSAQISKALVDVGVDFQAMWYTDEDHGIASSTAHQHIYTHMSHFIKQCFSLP

In the case of “L-His-L-Ala-NH-NH-CH2-C(O)-Glu9-37 (SP007) (peptide)”, the Activity of 15 µM of each peptide as percentage of insulin release by cells only (beta TC-6 cells) (% of insulin release by cells only) [1] is reported as 235.
With HAEGTFTSDVSSYLEG [GLP-1 7-22] the “state of peptide after 18 hr incubation with DPP-IV” value [2] was “completely cleaved”.
For “Glu Gly Thr Phe Thr Ser Asp Val Ser Ser Tyr Leu Glu Gly Gln Ala Ala Lys Glu Phe Ile Ala Trp Leu Val Lys Gly Arg Gly (EGTFTSDVSSYLEGQAAKEFIAWLVKGRG; listed as Homo sapiens) [Native GLP-1 9-37, reference compound]”, the Insulin release ([3]; 15 μM peptide) was 3.25 ng/min/mg and the “Activity of 15 μM of each peptide as percentage of insulin release by cells only” value ([3]; 15 μM peptide) was 123 ± 17%.
`CC[C@H](C)[C@H](NC(=O)[C@H](Cc1ccccc1)NC(=O)[C@H](CCC(=O)O)NC(=O)[C@H](CCCCN)NC(=O)[C@H](C)NC(=O)[C@H](C)NC(=O)[C@H](CCC(N)=O)NC(=O)CNC(=O)[C@H](CCC(=O)O)NC(=O)[C@H](CC(C)C)NC(=O)[C@H](Cc1ccc(O)cc1)NC(=O)[C@H](CO)NC(=O)[C@H](CO)NC(=O)[C@@H](NC(=O)[C@H](CC(=O)O)NC(=O)[C@H](CO)NC(=O)[C@@H](NC(=O)[C@H](Cc1ccccc1)NC(=O)[C@@H](NC(=O)CNC(=O)[C@H](CCC(=O)O)NC(=O)[C@H](C)NNC(=O)[C@@H](N)Cc1c[nH]cn1)[C@@H](C)O)[C@@H](C)O)C(C)C)C(=O)N[C@@H](C)C(=O)N[C@@H](Cc1c[nH]c2ccccc12)C(=O)N[C@@H](CC(C)C)C(=O)N[C@H](C(=O)N[C@@H](CCCCN)C(=O)NCC(=O)N[C@@H](CCCNC(=N)N)C(=O)NCC(=O)O)C(C)C` [SP008, L-His-NH—NH—CH(CH3)—C(O)-Glu9-37] gave a remaining at 22 h [4] of 95%, a remaining at 47 h [4] of 93% and a remaining at 22 h [5] of 91%. The remaining at 47 h ([5]; 47 hr) was 77%, the Insulin release ([3]; 3 μM peptide) was 4.35 ng/min/mg and the “Activity of 3 μM of each peptide as percentage of insulin release by cells only” value ([3]; 3 μM peptide) was 112 ± 44%. The Insulin release ([3]; 15 μM peptide) was 6.20 ng/min/mg and the “Activity of 15 μM of each peptide as percentage of insulin release by cells only” value ([3]; 15 μM peptide) was 170 ± 48%.
With `CC[C@H](C)[C@H](NC(=O)[C@H](Cc1ccccc1)NC(=O)[C@H](CCC(=O)O)NC(=O)[C@H](CCCCN)NC(=O)[C@H](C)NC(=O)[C@H](C)NC(=O)[C@H](CCC(N)=O)NC(=O)CNC(=O)[C@H](CCC(=O)O)NC(=O)[C@H](CC(C)C)NC(=O)[C@H](Cc1ccc(O)cc1)NC(=O)[C@H](CO)NC(=O)[C@H](CO)NC(=O)[C@@H](NC(=O)[C@H](CC(=O)O)NC(=O)[C@H](CO)NC(=O)[C@@H](NC(=O)[C@H](Cc1ccccc1)NC(=O)[C@@H](NC(=O)CNC(=O)[C@H](CCC(=O)O)NC(=O)CONC[C@H](C)NC(=O)[C@@H](N)Cc1c[nH]cn1)[C@@H](C)O)[C@@H](C)O)C(C)C)C(=O)N[C@@H](C)C(=O)N[C@@H](Cc1c[nH]c2ccccc12)C(=O)N[C@@H](CC(C)C)C(=O)N[C@H](C(=O)N[C@@H](CCCCN)C(=O)NCC(=O)N[C@@H](CCCNC(=N)N)C(=O)NCC(=O)O)C(C)C` [SP005, L-His-L-NH—CH(CH3)—CH2—NH—O—CH2—C(O)-Glu9-37] the remaining at 22 h [4] was 95%, the remaining at 47 h [4] was 93% and the remaining at 22 h [5] was 95%. The remaining at 47 h ([5]; 47 hr) was 89%, the Insulin release ([3]; 3 μM peptide) was 2.25 ng/min/mg and the “Activity of 3 μM of each peptide as percentage of insulin release by cells only” value ([3]; 3 μM peptide) was 171 ± 53%. For the same compound, the Insulin release ([3]; 15 μM peptide) was 5.26 ng/min/mg and the “Activity of 15 μM of each peptide as percentage of insulin release by cells only” value ([3]; 15 μM peptide) was 358 ± 128%.
“GLP-1 NH2-L-His-L-Ala-urea-9-37 (SP001) (peptide)” gave an Activity of 15 µM of each peptide as percentage of insulin release by cells only (beta TC-6 cells) (% of insulin release by cells only) [1] of 100.
“GLP-1 NH2-D-His-D-Ala-Urea-9-37 (SP002) (peptide)” gave an Activity of 15 µM of each peptide as percentage of insulin release by cells only (beta TC-6 cells) (% of insulin release by cells only) [1] of 254.
“L-His-NH-NH-CH2-C(O)-Glu9-37 (SP006) (peptide)” gave an Activity of 15 µM of each peptide as percentage of insulin release by cells only (beta TC-6 cells) (% of insulin release by cells only) [1] of 330.
In the case of `CC[C@H](C)[C@H](NC(=O)[C@H](Cc1ccccc1)NC(=O)[C@H](CCC(=O)O)NC(=O)[C@H](CCCCN)NC(=O)[C@H](C)NC(=O)[C@H](C)NC(=O)[C@H](CCC(N)=O)NC(=O)CNC(=O)[C@H](CCC(=O)O)NC(=O)[C@H](CC(C)C)NC(=O)[C@H](Cc1ccc(O)cc1)NC(=O)[C@H](CO)NC(=O)[C@H](CO)NC(=O)[C@@H](NC(=O)[C@H](CC(=O)O)NC(=O)[C@H](CO)NC(=O)[C@@H](NC(=O)[C@H](Cc1ccccc1)NC(=O)[C@@H](NC(=O)CNC(=O)[C@H](CCC(=O)O)NC(=O)CNNC(=O)[C@@H](N)Cc1c[nH]cn1)[C@@H](C)O)[C@@H](C)O)C(C)C)C(=O)N[C@@H](C)C(=O)N[C@@H](Cc1c[nH]c2ccccc12)C(=O)N[C@@H](CC(C)C)C(=O)N[C@H](C(=O)N[C@@H](CCCCN)C(=O)NCC(=O)N[C@@H](CCCNC(=N)N)C(=O)NCC(=O)O)C(C)C` [SP006, L-His-NH-NH-CH2-C(O)-Glu9-37], the remaining at 22 h [4] is reported as 88%, the remaining at 47 h [4] is reported as 87% and the “percentage of peptide remaining” value ([5]; 47 hr) is reported as 88%. The remaining at 22 h [5] was 88%, the Insulin release ([3]; 3 μM peptide) was 3.86 ng/min/mg and the “Activity of 3 μM of each peptide as percentage of insulin release by cells only” value ([3]; 3 μM peptide) was 154 ± 25%. The Insulin release ([3]; 15 μM peptide) was 8.88 ng/min/mg and the “Activity of 15 μM of each peptide as percentage of insulin release by cells only” value ([3]; 15 μM peptide) was 330 ± 89%.
With “L-His-L-NH-CH(CH3)-CH2-NH-O-CH2-C(O)-Glu9-37 (SP005) (peptide)” the Activity of 15 µM of each peptide as percentage of insulin release by cells only (beta TC-6 cells) (% of insulin release by cells only) [1] was 358.
“L-His-NH-NH-CH(CH3)-C(O)-Glu9-37 (SP008) (peptide)” gave an Activity of 15 µM of each peptide as percentage of insulin release by cells only (beta TC-6 cells) (% of insulin release by cells only) [1] of 170.
For “dipeptidyl peptidase IV (DPP-IV) (Sigma) (enzyme)”, the percentage of each analogue remaining after incubation with DPP-IV (RP-HPLC), 22 hr [6] was < 5 % remaining, the percentage of each analogue remaining after incubation with DPP-IV (RP-HPLC), 47 hr [7] was 87 % remaining and the percentage of each analogue remaining after incubation with DPP-IV (RP-HPLC), 47 hr [8] was 93 % remaining. The percentage of each analogue remaining after incubation with DPP-IV (RP-HPLC), 22 hr [9] was < 5 % remaining and the percentage of each analogue remaining after incubation with DPP-IV (RP-HPLC), 47 hr [10] was 93 % remaining.
